According to patent US11666600B2, “Methods for culturing and/or differentiating hematopoietic stem cells into progenitors and uses thereof” (HEMA-QUEBEC, priority 2015, dated 2023):

Assays:
[1] = test system: Human CB CD34+-enriched cells; assay: Culture of CB CD34+-enriched hematopoietic stem cells in conditions favoring self-renewal; assay type: cell-based; conditions: for Percentage of phenotype CD34+ / Percentage of phenotype CD34+/CD38− / Percentage of phenotype CD34+/CD38−/CD45RA− / Percentage of phenotype CD34+/CD45RA− / Percentage of phenotype CD38− / Percentage of phenotype CD45RA−: 14 days
Method: Human cord blood (CB) was collected after obtaining written informed consent from donors, following our institutional Research Ethics Committee guidelines. Mononuclear cells (MNCs) were first separated over a Ficoll-Hypaque™ density gradient (GE Healthcare), then cryopreserved at −180° C. in Cryostor CS10™ medium ([…] Technologies). Thawed MNCs from six to eight CB were pooled before CD34 isolation. CB CD34+ cells were enriched by positive selection using the EasySep™ CD34 enrichment kit, according to the manufacturer's instructions ([…] Technologies).
Cultures were maintained in a humidified atmosphere with 5% CO2 at 37° C. or 39° C., as indicated in the Examples. Cells were diluted at 500 000 cells/mL with fresh medium every 3 to 4 days.
Cellular counts and viability were determined by adding Solution 18 (Acridine Orange and DAPI solution, ChemomMetec) and using NucleoCounter™ NC-250 for detection (ChemomMetec).
For cells expanded in conditions favoring self-renewal, surface markers were detected using the following antibodies: CD34-PE, CD45RA-FITC, and CD38-BV421. All antibodies were purchased from BD Biosciences, except for CD34-PE which was purchased from Immunotech. Labeling of aldehyde dehydrogenase (ALDH)-positive cells was performed using the ALDEFLUOR™ Kit ([…] Technologies), according to the manufacturer's instructions. 7AAD was used as a viability dye. All samples were analyzed on a FACS-Cy Flow ML system (Sysmex), and raw data were analyzed with FCS Express 5 Flow Research Edition software from at least 15 000 viable cell events acquired for each sample.
Cellular counts and viability were determined as described in Example 6.5.

[2] = test system: CD34+/CD45RA− mobilized peripheral blood cells; conditions: Fares et al., 2014; cited from earlier work
[3] = 37° C. + PIC 35 nM, ACF + CC110
[4] = 37° C. + PIC 35 nM, ACF + CC110 (Table 5)
[5] = 37° C. + PIC 35 nM, ACF + HM (Table 5)
[6] = 37° C. + PIC 35 nM, SFEM + CC110
[7] = 37° C. + PIC 35 nM, SFEM II + CC110
[8] = 37° C. + PIC 35 nM, SFEM II + HM
[9] = 39° C. + PIC 35 nM, ACF + CC110
[10] = 39° C. + PIC 35 nM, ACF + CC110 (Table 5)
[11] = 39° C. + PIC 35 nM, ACF + HM (Table 5)
[12] = 39° C. + PIC 35 nM, SFEM + CC110
[13] = 39° C. + PIC 35 nM, SFEM II + CC110
[14] = 39° C. + PIC 35 nM, SFEM II + HM

Cl.Cn1nnc(-c2ccc3c(c2)[nH]c2nc(Cc4ccccc4)nc(N[C@H]4CC[C@H](N)CC4)c23)n1 [PIC, (1r,4r)-N1-(2-benzyl-7-(2-methyl-2H-tetrazol-5-yl)-9H-pyrimido[4,5-b]indol-4-yl)cyclohexane-1,4-diamine hydrochloride]
combined use of mild hyperthermia and PIC on expansion of CD34+/ALDH^Bright cells ([1]; 39° C. + PIC 35 nM, 21 days, ACF + HM, FIG. 29): synergistic expansion
Percentage of phenotype CD34+ [1, 3]: 48.9%
Percentage of phenotype CD34+/CD38− [1, 3]: 30.3%
Percentage of phenotype CD34+/CD38−/CD45RA− [1, 3]: 10%
Percentage of phenotype CD34+/CD45RA− [1, 3]: 16.36%
Percentage of phenotype CD38− [1, 3]: 14.8%
Percentage of phenotype CD45RA− [1, 3]: 59.2%
Percentage of phenotype CD34+ [1, 4]: 50.98%
Percentage of phenotype CD34+/CD45RA− [1, 4]: 11.83%
Percentage of phenotype CD45RA− [1, 4]: 76.09%
Percentage of phenotype CD34+ ([1]; 37° C. + PIC 35 nM, ACF + HM): 51.5%
Percentage of phenotype CD34+/CD38− ([1]; 37° C. + PIC 35 nM, ACF + HM): 32.4%
Percentage of phenotype CD34+/CD38−/CD45RA− ([1]; 37° C. + PIC 35 nM, ACF + HM): 14.7%
Percentage of phenotype CD34+/CD45RA− ([1]; 37° C. + PIC 35 nM, ACF + HM): 22.4%
Percentage of phenotype CD38− ([1]; 37° C. + PIC 35 nM, ACF + HM): 12.05%
Percentage of phenotype CD45RA− ([1]; 37° C. + PIC 35 nM, ACF + HM): 53.4%
Percentage of phenotype CD34+ [1, 5]: 44.62%
Percentage of phenotype CD34+/CD45RA− [1, 5]: 7.67%
Percentage of phenotype CD45RA− [1, 5]: 77.44%
Percentage of phenotype CD34+ [1, 6]: 42.68%
Percentage of phenotype CD34+/CD45RA− [1, 6]: 6.96%
Percentage of phenotype CD45RA− [1, 6]: 78.72%
Percentage of phenotype CD34+ ([1]; 37° C. + PIC 35 nM, SFEM + HM): 37.4%
Percentage of phenotype CD34+/CD45RA− ([1]; 37° C. + PIC 35 nM, SFEM + HM): 6.66%
Percentage of phenotype CD45RA− ([1]; 37° C. + PIC 35 nM, SFEM + HM): 75.74%
Percentage of phenotype CD34+ [1, 7]: 33.38%
Percentage of phenotype CD34+/CD45RA− [1, 7]: 6.09%
Percentage of phenotype CD45RA− [1, 7]: 77.73%
Percentage of phenotype CD34+ [1, 8]: 30.82%
Percentage of phenotype CD34+/CD45RA− [1, 8]: 6.11%
Percentage of phenotype CD45RA− [1, 8]: 77.27%
Percentage of phenotype CD34+ [1, 9]: 43.7%
Percentage of phenotype CD34+/CD38− [1, 9]: 24.2%
Percentage of phenotype CD34+/CD38−/CD45RA− [1, 9]: 14.1%
Percentage of phenotype CD34+/CD45RA− [1, 9]: 23.05%
Percentage of phenotype CD38− [1, 9]: 14.45%
Percentage of phenotype CD45RA− [1, 9]: 40.85%
Percentage of phenotype CD34+ [1, 10]: 43.73%
Percentage of phenotype CD34+/CD45RA− [1, 10]: 18.73%
Percentage of phenotype CD45RA− [1, 10]: 59.72%
Percentage of phenotype CD34+ ([1]; 39° C. + PIC 35 nM, ACF + HM): 40.95%
Percentage of phenotype CD34+/CD38− ([1]; 39° C. + PIC 35 nM, ACF + HM): 22.9%
Percentage of phenotype CD34+/CD38−/CD45RA− ([1]; 39° C. + PIC 35 nM, ACF + HM): 15.7%
Percentage of phenotype CD34+/CD45RA− ([1]; 39° C. + PIC 35 nM, ACF + HM): 24.8%
Percentage of phenotype CD38− ([1]; 39° C. + PIC 35 nM, ACF + HM): 12%
Percentage of phenotype CD45RA− ([1]; 39° C. + PIC 35 nM, ACF + HM): 35.2%
Percentage of phenotype CD34+ [1, 11]: 44.82%
Percentage of phenotype CD34+/CD45RA− [1, 11]: 17.68%
Percentage of phenotype CD45RA− [1, 11]: 59.67%
Percentage of phenotype CD34+ [1, 12]: 45.36%
Percentage of phenotype CD34+/CD45RA− [1, 12]: 12.23%
Percentage of phenotype CD45RA− [1, 12]: 70.13%
Percentage of phenotype CD34+ ([1]; 39° C. + PIC 35 nM, SFEM + HM): 41.95%
Percentage of phenotype CD34+/CD45RA− ([1]; 39° C. + PIC 35 nM, SFEM + HM): 12.39%
Percentage of phenotype CD45RA− ([1]; 39° C. + PIC 35 nM, SFEM + HM): 69.88%
Percentage of phenotype CD34+ [1, 13]: 37.9%
Percentage of phenotype CD34+/CD45RA− [1, 13]: 15.03%
Percentage of phenotype CD45RA− [1, 13]: 63.9%
Percentage of phenotype CD34+ [1, 14]: 37.56%
Percentage of phenotype CD34+/CD45RA− [1, 14]: 15.27%
Percentage of phenotype CD45RA− [1, 14]: 63.45%
expansion of CD34+/CD45RA− mobilized peripheral blood cells (enriched in LT-HSCs) [2]: stimulate expansion
